Measurements published in the NIST ThermoML archive (doi:10.1021/je020067x).

Assays:
[1] = xn = mol fraction of the nth substance listed; settings: 303.15 K, 101.33 kPa, Liquid; for viscosity: Capillary tube (Ostwald / Ubbelohde) method; for mass density: Vibrating tube method
[2] = 303.15 K, 101.33 kPa, Liquid; for viscosity: Capillary tube (Ostwald / Ubbelohde) method; for mass density: Vibrating tube method

ClCCl [dichloromethane] + ClC(Cl)Cl
[1]
Settings | mass density [kg/m3] | viscosity [mPa·s]
x1 = 0.0633 | 1462.3 | 0.504
x1 = 0.1191 | 1454.8 | 0.4976
x1 = 0.1924 | 1444.7 | 0.4892
x1 = 0.3101 | 1427.8 | 0.4741
x1 = 0.3607 | 1420.3 | 0.4686
x1 = 0.4299 | 1409.7 | 0.4602
x1 = 0.5221 | 1395.1 | 0.4501
x1 = 0.6464 | 1374.3 | 0.4352
x1 = 0.6833 | 1367.8 | 0.4301
x1 = 0.74 | 1357.8 | 0.4236
x1 = 0.7979 | 1347.1 | 0.4163
x1 = 0.8681 | 1333.9 | 0.4083
x1 = 0.9034 | 1327 | 0.404
x1 = 0.9358 | 1320.6 | 0.4005

ClC(Cl)Cl [trichloromethane]
[2]
Settings | mass density [kg/m3] | viscosity [mPa·s]
– | 1470.5 | 0.5118

ClC(Cl)(Cl)Cl [tetrachloromethane] + ClC(Cl)Cl
[1]
Settings | mass density [kg/m3] | viscosity [mPa·s]
x1 = 0.0591 | 1477.2 | 0.5216
x1 = 0.075 | 1479 | 0.5248
x1 = 0.1297 | 1485.1 | 0.5343
x1 = 0.2236 | 1495.3 | 0.5538
x1 = 0.2777 | 1501.2 | 0.5658
x1 = 0.3416 | 1508.1 | 0.5811
x1 = 0.434 | 1517.9 | 0.6041
x1 = 0.4886 | 1523.6 | 0.6201
x1 = 0.5736 | 1532.5 | 0.6486
x1 = 0.6646 | 1541.8 | 0.6807
x1 = 0.7747 | 1552.9 | 0.7256
x1 = 0.8186 | 1557.3 | 0.7458
x1 = 0.8904 | 1564.4 | 0.7804
x1 = 0.9305 | 1568.3 | 0.8017

ClC(Cl)(Cl)Cl [tetrachloromethane]
[2]
Settings | mass density [kg/m3] | viscosity [mPa·s]
– | 1575 | 0.8403

ClC(Cl)(Cl)Cl [tetrachloromethane] + ClCCl
[1]
Settings | mass density [kg/m3] | viscosity [mPa·s]
x1 = 0.0375 | 1321.5 | 0.4008
x1 = 0.0622 | 1330.4 | 0.4061
x1 = 0.0791 | 1336.4 | 0.4097
x1 = 0.0889 | 1339.9 | 0.412
x1 = 0.1254 | 1352.4 | 0.421
x1 = 0.2047 | 1378.4 | 0.441
x1 = 0.2305 | 1386.5 | 0.4479
x1 = 0.297 | 1406.7 | 0.4669
x1 = 0.3695 | 1427.7 | 0.4897
x1 = 0.4985 | 1462.5 | 0.5369
x1 = 0.4986 | 1462.5 | 0.5374
x1 = 0.4997 | 1462.8 | 0.5375
x1 = 0.5631 | 1478.9 | 0.564
x1 = 0.609 | 1490.1 | 0.5853
x1 = 0.6845 | 1508 | 0.6223
x1 = 0.8006 | 1533.9 | 0.6894
x1 = 0.8032 | 1534.5 | 0.6915
x1 = 0.8652 | 1547.7 | 0.7331
x1 = 0.9279 | 1560.7 | 0.7792
x1 = 0.9677 | 1568.6 | 0.8116

ClCCl [dichloromethane]
[2]
Settings | mass density [kg/m3] | viscosity [mPa·s]
– | 1307.6 | 0.3929
